These results are taken from patent publication US8883679B2, “Liquid mycorrhiza compositions” (Novozymes A/S, priority 2007, dated 2014).

The test system of this experiment is roots of corn plants. Description: endomycorrhizal mean infection percentage (MIP) bioassay. In kind it is in vivo, Zea Maize 'Golden Bantam'. Conditions: both trials. Here is the method: An endomycorrhizal mean infection percentage (MIP) bioassay was initiated to test mycorrhizal infectivity of a liquid mycorrhizal formulation treated with bactericides. The MIP bioassay is used to determine the effect of endomycorrhizal colonization in the roots of corn plants on the treatment applied. The MIP bioassay was adapted to utilize 15 mL of liquid per pot. The liquid mycorrhizal formulation which was tested was MycoApply Ultra (Novozymes Biologicals), which is a mycorrhizal inoculant that contains several species of endomycorrhizas. For a ready to use fertilizer, the optimal amount of mycorrhizas to be added based on application rate of ready to use fertilizer, mycorrhizal infectivity, and cost effectiveness was 0.1 propagules of mycorrhizas per 1.0 mL of ready to use fertilizer. MycoApply Ultra contains 286 propagules per gram, therefore 0.00034 g MycoApply Ultra in 1 mL of ready to use fertilizer will provide the desired concentration of mycorrhizal propagules, 0.1 prop/mL. The MycoApply Ultra was tested with two different concentrates 10× (0.0034 g/mL) and 100× (0.034 g/mL). The bactericide used in all treatments for Trial 1 was 500 ppm Kathon and 250 ppm Bronopol. There were seven treatment groups, each contained 5 replicates. Treatment 1 was a water only control. […] At harvest the parameter evaluated was percent mycorrhizal colonization. […]

For `O=[N+]([O-])C(Br)(CO)CO` [Bronopol, 2-bromo-2-nitro-1,3-propanediol], the “ability of mycorrhizas to germinate and infect roots in presence of bactericide” value is “increase”.
